Reference: patent US20230372318A1, “METHODS FOR TREATING A SUBJECT HAVING MULTIPLE SYSTEM ATROPHY” (Theravance Biopharma R&D IP, LLC, priority 2022, published 2023)

Tested on: subjects with primary autonomic failures (MSA, PD, or PAF) and symptomatic nOH
Test: Phase 3 22-week randomized withdrawal study in symptomatic nOH (Example 7)
Assay type: in vivo, human
Design: OHSA composite score, LS Mean / OHSA composite score, Mean / OHSA composite score, Median / OHSA composite score, LS Mean Difference / OHDAS item 1 (standing for a short time) score, Mean / OHDAS item 1 (standing for a short time) score, Median / OHDAS item 1 (standing for a short time) score, LS Mean / OHDAS item 1 (standing for a short time) score, LS Mean Difference: scale not given here
Settings: for OHSA composite score, Mean / OHSA composite score, Median / OHSA composite score, LS Mean Difference / OHSA composite score, LS Mean: change at week 22, end of 6-week double-blind period; for OHDAS item 1 (standing for a short time) score, LS Mean / OHDAS item 1 (standing for a short time) score, Mean / OHDAS item 1 (standing for a short time) score, Median / OHDAS item 1 (standing for a short time) score, LS Mean Difference: week 22, end of 6-week double-blind period
Experimental: The study consisted of a 16-week open-label (OL) treatment period with ampreloxetine followed by a 6-week double-blind randomized withdrawal period where subjects were administered either ampreloxetine or placebo.
Eligible subjects were either (i) completers of the study of Example 6 (“Completers Group”), or (ii) symptomatic nOH subjects meeting all applicable study inclusion criteria and none of the applicable exclusion criteria (“De Novo Group”).
A 4-week screening period applied to the De Novo Group only and the Screening visit was conducted in clinic for all De Novo Group subjects.
A total of 203 subjects entered this study (170 subjects from Example 6 (85 from the ampreloxetine group and 85 from the placebo group) and 33 de novo subjects). During the OL period, 55 subjects discontinued treatment. At 16 weeks, 64 subjects were randomized to the ampreloxetine group (6 subjects discontinued the study) and 64 subjects were randomized to the placebo group (3 subjects discontinued the study). A total of 119 subjects completed the study. Of the 128 subjects entering the randomized period, 40 subjects had MSA (31%); 68 subjects had PD (53%); and 20 subjects had PAF (16%) (in each category, the subjects were split equally between ampreloxetine and placebo).
Beginning on Day 2, subjects received a single dose of 10 mg ampreloxetine once daily (QD) and continued thereafter for the 16-week duration of the OL treatment period. Following this 16-week OL treatment period, subjects were randomized to either continue on the active treatment or placebo (“PBO”) for a period of 6 weeks.
Subjects enrolled into the OL period of the study had visits scheduled for Day 15, Day 29, and every 4 weeks thereafter for assessments as outlined in the Schedule of Study Procedures. […] Those subjects not meeting this continuation criterion were discontinued and underwent an end of study visit. The end of study visit was completed within 2 weeks from the date of the last dose.
Following the completion of a total of 16 weeks OL treatment with ampreloxetine (V6), subjects were assessed for randomization in a 1:1 manner. Eligible subjects received 6 weeks of double-blind treatment of ampreloxetine or PBO once daily. Only subjects with OHSA #1 score of ≤7 were eligible for randomization for the double-blind treatment period.
Exploratory assessments included: orthostatic standing test; NMSS; EQ-5D-5L; HADS; and BSFC-s. For subjects with PD, exploratory assessments included: Unified Parkinson's Disease Rating Scale (UPDRS); and Parkinson's Disease Questionaire-8 (PDQ-8). For subjects with MSA, exploratory assessments included: Unified Multiple System Atrophy Rating Scale (UMSARS); and Composite Autonomic Symptom Score-31 (COMPASS-31).
The secondary endpoints included: • (a) Change from baseline in OHSA #1 at Week 6 post randomization (V9, D155); • (b) Change from baseline in OHSA composite score at Week 6 post randomization (V9, D155); • (c) Change from baseline in OHDAS composite score at Week 6 post randomization (V9, D155); • (d) Change from baseline in PGI-S at Week 6 post randomization (V9, D155); • (e) Change from baseline in percentage of time spent in standing position as measured by a wearable device at Week 6 post randomization (V9, D155); and • (f) Change from baseline in average number of steps taken as measured by a wearable device at Week 6 post randomization (V9, D155).

[1] = MSA subjects, Pre treatment baseline OHSA1 <7
[2] = MSA subjects, Pre treatment baseline OHSA1 >2
[3] = MSA subjects, Pre treatment baseline OHSA1 >=7
[4] = MSA subjects, Pre treatment baseline OHSA Composite <5.3
[5] = MSA subjects, Pre treatment baseline OHSA Composite >=5.3
[6] = MSA subjects, RW baseline OHSA1 <=2
[7] = MSA subjects, RW baseline OHSA Composite <2.5
[8] = MSA subjects, RW baseline OHSA Composite >=2.5
[9] = MSA subjects, UMSARS Part IV <4
[10] = MSA subjects, UMSARS Part IV <4, vs placebo
[11] = MSA subjects, UMSARS Part IV >=4
[12] = MSA subjects, UMSARS Part IV >=4, vs placebo
[13] = MSA subjects, nOH onset <1.6 years
[14] = MSA subjects, nOH onset <1.6 years, vs placebo
[15] = MSA subjects, nOH onset >=1.6 years
[16] = MSA subjects, nOH onset >=1.6 years, vs placebo
[17] = MSA subjects, end of 6-week double-blind randomized period, FIG. 3
[18] = MSA subjects, week 22, 10 mg, N 19

Fc1cc(F)c(OCc2ccccc2C2CCNCC2)c(F)c1 [Ampreloxetine, 4-[2-(2,4,6-trifluorophenoxymethyl)phenyl]piperidine]
OHSA composite score, Mean [1]: −0.11 | OHSA composite score, Median [1]: −0.1 | OHSA composite score, LS Mean Difference (MSA subjects, Pre treatment baseline OHSA1 <7, vs placebo): −1.08 | OHSA composite score, LS Mean [2]: −0.77 | OHSA composite score, Mean [2]: −0.96 | OHSA composite score, Median [2]: −0.6 | OHSA composite score, LS Mean Difference (MSA subjects, Pre treatment baseline OHSA1 >2, vs placebo): −1.99 | OHSA composite score, LS Mean [3]: 0.41 | OHSA composite score, Mean [3]: 0.00 | OHSA composite score, Median [3]: 0.5 | OHSA composite score, LS Mean Difference (MSA subjects, Pre treatment baseline OHSA1 >=7, vs placebo): −1.31 | OHSA composite score, LS Mean [4]: −0.71 | OHSA composite score, Mean [4]: −0.56 | OHSA composite score, Median [4]: −0.05 | OHSA composite score, LS Mean Difference (MSA subjects, Pre treatment baseline OHSA Composite <5.3, vs placebo): −1.96 | OHSA composite score, LS Mean [5]: 0.76 | OHSA composite score, Mean [5]: 0.46 | OHSA composite score, Median [5]: 0.3 | OHSA composite score, LS Mean Difference (MSA subjects, Pre treatment baseline OHSA Composite >=5.3, vs placebo): −0.97 | OHSA composite score, LS Mean [6]: 0.74 | OHSA composite score, Mean [6]: 0.86 | OHSA composite score, Median [6]: 0.25 | OHSA composite score, LS Mean Difference (MSA subjects, RW baseline OHSA1 <=2, vs placebo): −0.91 | OHSA composite score, LS Mean [7]: 0.95 | OHSA composite score, Mean [7]: 0.98 | OHSA composite score, Median [7]: 0.4 | OHSA composite score, LS Mean Difference (MSA subjects, RW baseline OHSA Composite <2.5, vs placebo): −0.90 | OHSA composite score, LS Mean [8]: −0.92 | OHSA composite score, Mean [8]: −0.90 | OHSA composite score, Median [8]: −0.5 | OHSA composite score, LS Mean Difference (MSA subjects, RW baseline OHSA Composite >=2.5, vs placebo): −1.96 | OHSA composite score, LS Mean [9]: 0.01 | OHSA composite score, Mean [9]: −0.04 | OHSA composite score, Median [9]: 0.25 | OHSA composite score, LS Mean Difference [10]: −1.70 | OHDAS item 1 (standing for a short time) score, LS Mean [9]: −0.3 | OHDAS item 1 (standing for a short time) score, Mean [9]: −0.3 | OHDAS item 1 (standing for a short time) score, Median [9]: 0.0 | OHDAS item 1 (standing for a short time) score, LS Mean Difference [10]: −2.8 | OHSA composite score, LS Mean [11]: −0.17 | OHSA composite score, Mean [11]: −0.15 | OHSA composite score, Median [11]: −0.15 | OHSA composite score, LS Mean Difference [12]: −1.44 | OHDAS item 1 (standing for a short time) score, LS Mean [11]: 0.5 | OHDAS item 1 (standing for a short time) score, Mean [11]: 1.0 | OHDAS item 1 (standing for a short time) score, Median [11]: 1.0 | OHDAS item 1 (standing for a short time) score, LS Mean Difference [12]: 1.9 | OHSA composite score, LS Mean [13]: 0.48 | OHSA composite score, Mean [13]: 0.43 | OHSA composite score, Median [13]: 0.50 | OHSA composite score, LS Mean Difference [14]: −1.33 | OHDAS item 1 (standing for a short time) score, LS Mean [13]: −0.3 | OHDAS item 1 (standing for a short time) score, Mean [13]: −0.3 | OHDAS item 1 (standing for a short time) score, Median [13]: 0.0 | OHDAS item 1 (standing for a short time) score, LS Mean Difference [14]: −2.4 | OHSA composite score, LS Mean [15]: −0.45 | OHSA composite score, Mean [15]: −0.41 | OHSA composite score, Median [15]: −0.20 | OHSA composite score, LS Mean Difference [16]: −1.56 | OHDAS item 1 (standing for a short time) score, LS Mean [15]: −0.3 | OHDAS item 1 (standing for a short time) score, Mean [15]: −0.1 | OHDAS item 1 (standing for a short time) score, Median [15]: 0.0 | OHDAS item 1 (standing for a short time) score, LS Mean Difference [16]: −0.8 | OHDAS composite score, change (MSA subjects, 6-week double-blind randomized period, placebo +0.97, p=0.196): +0.16 | Systolic blood pressure upon standing for 3 minutes, mean change (MSA subjects, 6-week double-blind randomized period, placebo −12.4): +6.1 mmHg | Quality of life, EQ-5D-5L visual analog scale (MSA subjects, FIG. 4, vs placebo): quality of life declines less or improves | OHDAS walking long time [17]: favor placebo | OHSA and OHDAS composite scores and individual subscores [17]: all favor ampreloxetine | OHSA item 1 score, change (MSA subjects, end of 6-week double-blind randomized withdrawal period, placebo +1.8, p=0.0861): +0.3 | Anxiety Total Score, Change from Baseline, LS Mean Difference (SE) (MSA subjects, week 22, 10 mg vs placebo, P-value 0.0343): −1.26 (0.573) | Anxiety Total Score, Change from Baseline, LS Mean (SE) [18]: −1.05 (0.405) | Anxiety Total Score, Change from Baseline, Mean (SD) [18]: −1.05 (1.900) | Anxiety Total Score, Change from Baseline, Median [18]: −1.00 | OHQ composite scores for subgroups (subgroups of MSA subjects, week 22, FIG. 6): all favored ampreloxetine
